Assay results reported in ChEMBL document CHEMBL5230153, “Bitopic Sigma 1 Receptor Modulators to Shed Light on Molecular Mechanisms Underpinning Ligand Binding and Receptor Oligomerization” (J Med Chem, 2021).
Active and inactive are the calls of the source. The calls are words filed in the database; no cut-off is given here.

Tests used:
PC-12 [1] = assay: Cytotoxicity against rat PC-12 cells assessed as cell death at 0.25 uM after 72 hrs incubation by LDH-based cytotoxic assay; format: toxicity; settings: pc-12, 72 h
PC-12 [2] = assay: Neuroprotective activity in rat PC-12 cells assessed as increase in NGF-mediated neurite outgrowth by measuring differentiated cells at 5 to 250 nM incubated for 72 hrs by bright-field microscopic analysis; format: functional, cell-based; settings: dose 5-250 nM
PC-12 [3] = assay: Neuroprotective activity in rat PC-12 cells assessed as increase in NGF-mediated neurite outgrowth by measuring differentiated cells at 5 to 250 nM in presence of 1 uM NE-100 incubated for 72 hrs by bright-field microscopic analysis; format: functional, cell-based; settings: dose 5-250 nM
[4] = target: Sigma non-opioid intracellular receptor 1 (Cavia porcellus, UniProt Q60492); assay: Displacement of [3H](+)-pentazocine from sigma 1 receptor in guinea pig brain membranes measured after 120 mins by scintillation counting method; format: cell membranes, Membrane
Sequence of Sigma non-opioid intracellular receptor 1 (Q60492 whole entry): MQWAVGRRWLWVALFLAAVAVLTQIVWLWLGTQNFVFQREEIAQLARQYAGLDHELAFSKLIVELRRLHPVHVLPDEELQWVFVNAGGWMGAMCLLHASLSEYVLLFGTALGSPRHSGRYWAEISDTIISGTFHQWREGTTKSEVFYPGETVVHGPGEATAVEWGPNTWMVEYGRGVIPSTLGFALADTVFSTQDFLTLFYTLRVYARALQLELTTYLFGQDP

[5] = target: Sigma non-opioid intracellular receptor 1 (Cavia porcellus) (UniProt Q60492); assay: Displacement of [3H](+)-pentazocine from sigma 1 receptor in guinea pig brain membranes measured after 120 mins by scintillation counting method relative to control; format: cell membranes; settings: Membrane
Sequence of Sigma non-opioid intracellular receptor 1 (Cavia porcellus) (Q60492 whole entry): as above

C[C@H](CCN1CCC(NC(=O)CC(=O)NC2CCN(CC[C@@H](C)c3ccc(-c4ccccc4)cc3)CC2)CC1)c1ccc(-c2ccccc2)cc1
Activity (PC-12 [1]): Non-Toxic | Activity (PC-12 [2]): Active | Activity (PC-12 [3]): inactive | Ki [4]: 200 nM

C[C@H](CCN1CCCCC1)c1ccc(-c2ccccc2)cc1
Activity (PC-12 [1]): Non-Toxic | Activity (PC-12 [2]): Active | Activity (PC-12 [3]): inactive

C[C@H](CCN1CCC(NC(=O)c2ccccc2C(=O)NC2CCN(CC[C@@H](C)c3ccc(-c4ccccc4)cc3)CC2)CC1)c1ccc(-c2ccccc2)cc1
Ki [4]: 134 nM

C[C@H](CCN1CCC(NC(=O)CCOCCOCCOCCOCCOCCOCCOCCOCCOCCC(=O)NC2CCN(CC[C@@H](C)c3ccc(-c4ccccc4)cc3)CC2)CC1)c1ccc(-c2ccccc2)cc1
Ki [4]: 799 nM

C[C@H](CCN1CCC(NC(=O)COCCOCCOCCOCCNC(=O)c2ccccc2)CC1)c1ccc(-c2ccccc2)cc1
Ki [4]: 1600 nM

C[C@H](CCN1CCC(NC(=O)CCCCCC(=O)NC2CCN(CC[C@@H](C)c3ccc(-c4ccccc4)cc3)CC2)CC1)c1ccc(-c2ccccc2)cc1
Ki [4]: 1300 nM

C[C@H](CCN1CCC(NC(=O)COCCOCC(=O)NC2CCN(CC[C@@H](C)c3ccc(-c4ccccc4)cc3)CC2)CC1)c1ccc(-c2ccccc2)cc1
Activity (PC-12 [1]): Non-Toxic | Activity (PC-12 [2]): Active | Activity (PC-12 [3]): inactive | Ki [4]: 2.6 nM

CC(=O)NC1CCN(CC[C@@H](C)c2ccc(-c3ccccc3)cc2)CC1
Activity (PC-12 [1]): Non-Toxic | Activity (PC-12 [2]): Active | Activity (PC-12 [3]): inactive | Ki [4]: 11 nM

C[C@H](CCN1CCC(NC(=O)CCCC(=O)NC2CCN(CC[C@@H](C)c3ccc(-c4ccccc4)cc3)CC2)CC1)c1ccc(-c2ccccc2)cc1
Ki [4]: 622 nM

C[C@H](CCN1CCC(NC(=O)COCC(=O)NC2CCN(CC[C@@H](C)c3ccc(-c4ccccc4)cc3)CC2)CC1)c1ccc(-c2ccccc2)cc1
inhibition [5]: 0%
